Measurements taken from US20040185509A1, “Eosinophil prostaglandin d2 receptor assays” (priority 2001, published 2004).
“Also recorded” adds a separate entry of the source.

Legend:
[1] = system: purified human eosinophils; assay: Eosinophil chemokinesis (chemotactic chamber without chemoattractant in the lower chamber); type: cell-based; settings: for stimulation of eosinophil chemokinesis (result in words): FIG. 3: BW245C 1 μM, DK-PGD2 100 nM, PAF 100 nM, IL-5 1 ng/ml, PGE2, fluprostenol and latanoprost 1 μM; for increase in eosinophil chemokinesis: data not shown
Description: Purified eosinophils were resuspended at 3.0×10^6 cells per ml in RPMI 1640 medium supplemented with 0.5% (v/v) fetal bovine serum. Compounds to be tested were added from 1000× concentrated stock solutions to 100 μl of cells in a 1.5 ml centrifuge tube and incubated at room temperature for 5 minutes. 100 μl of treated cells were then added to the top half of a chemotactic chamber (6.5 mm Transwell, 3.0 μm polycarbonate membrane from Costar) and 600 μl of RPMI, supplemented with 0.5% (v/v) fetal bovine serum, was added to the bottom chamber. After a 2 hour incubation at 37° C. in a CO2 chamber, the top chamber was discarded and the number of cells that had migrated to the lower chamber was evaluated by counting the cells using an hematocytometer. For each condition tested, the number of migrating eosinophils in two chemotactic chambers was averaged.
Chemokinesis was measured by incubating eosinophils with PGD2 for 5 minutes prior to their loading in the upper chamber of a chemotactic unit lacking a chemoattractant in the lower chamber. PGD2 at a concentration of […] increased eosinophil chemokinesis by 6-fold compared to cells treated with vehicle only (FIG. 3). PGD2 at concentrations of 10 nM and 1 μM increased eosinophil chemokinesis by a factor of 5 and 9-fold respectively (data not shown).

[2] = system: purified human eosinophils; assay: In vitro eosinophil apoptosis assay (Annexin V/propidium iodide, flow cytometry); type: cell-based; settings: for effect on eosinophil apoptosis / percentage of non-apoptotic eosinophils (result in words): 36 hours in culture, 1 μM, interleukin-5 at 1 ng/ml, FIG. 5
Description: Purified eosinophils were resuspended at 2.0×10^5 cells per ml in RPMI 1640 medium supplemented with 10% (v/v) fetal bovine serum, 2 mM glutamine, and 100 units of penicillin and streptomycin. Compounds to be tested were diluted 1:1000 to their final concentration and the cells were incubated at 37° C. in a CO2 chamber for 36 hours. The extent of apoptosis in the eosinophil population was evaluated using the TACS™ Annexin-V-FITC apoptosis detection kit (R&D systems). Non-apoptotic cells are not stained with either Annexin-V FITC or propidium iodide. Early apoptotic cells are stained with Annexin-V FITC but not propidium iodide (green fluorescence). Late apoptotic cells are stained with both Annexin-V FITC and propidium iodide (dual green and red fluorescence). Necrotic cells are only stained with propidium iodide (red fluoresecence). Labeled eosinophils were analyzed in a FACS Calibur system from Becton Dickinson.
The ability of PGD2 to modulate apoptosis in eosinophils was measured by quantifying the capacity of Annexin V to bind to phosphatidylserine on the outer membrane of apoptotic cells. (Koopman, et al., Blood 84:1415, 1994.) Necrotic cell death was determined by propidium iodide uptake. (Darzynkiewicz, et al., Cytometry 13:795, 1992.) Annexin V-FITC and propidium iodide staining of eosinophils was evaluated by FACS analysis.

[3] = system: purified human eosinophils; assay: Eosinophil morphology change by light microscopy; type: cell-based
Description: Purified eosinophils were incubated in RPMI 1640 media supplemented with 0.5% fetal bovine serum in the presence of the compound to be tested for 15 minutes in a 24-well dish. Light microscopy was performed with an inverted Axiovert 25 (Zeiss) and images were obtained with a 35 mm SLR camera (ARIA CONTAX, Kyocera corporation) using Kodak Elite Chrome 160T film.
Vehicle-treated eosinophils were spherical and only weakly adhered to the culture dish. […] This effect was seen on the majority of eosinophils from all donors analysed (n=20).

[4] = system: purified human eosinophils; assay: Eosinophil degranulation (release of ECP into the media, radioimmunoassay); type: cell-based; settings: for release of ECP from eosinophils (result in words): FIG. 4: DK-PGD2 100 nM, BW245C 1 μM, FP and EP agonists 1 μM
Description: Purified eosinophils were resuspended at 3.0×10^6 cells per ml in RPMI 1640 medium supplemented with 0.5% (v/v) fetal bovine serum. Compounds to be tested were diluted 1:1000 to their final concentration in 300 μl of cells in a 1.5 ml centrifuge tube. The cells were immediately transferred to a 24-well plate. After an 1 hour incubation at 37° C. in a CO2 chamber, the cells were removed by centrifugation (4° C., 300× g, 10 minutes). Eosinophil cationic protein (ECP) in the supernatant was quantified by a double antibody radioimmunoassay (Pharmacia) following the manufacturer's protocol.
Degranulation of eosinophils was assayed by challenging freshly isolated eosinophils with PGD2 and measuring release of the eosinophil cationic protein (ECP) into the media using an ECP-specific radioimmunoassay.

eosinophils = assay: Eosinophil chemotaxis (agent in the bottom chamber of the chemotactic unit); type: cell-based, human; settings: data not shown
Description: Chemotaxis was measured by adding PGD2 to the bottom chamber of a chemotactic unit containing eosinophils in the top chamber.

[5] = 15 minutes, FIG. 2: DK-PGD2 10 nM, PAF 100 nM, IL-5 1 ng/ml

In the case of `CCCCC[C@H](O)/C=C/[C@H]1[C@H](O)CC(=O)[C@@H]1C/C=C\CCCC(=O)O` [PGE2], the “stimulation of eosinophil chemokinesis (result in words)” value (shortened to “stimulation of eosinophil chemokinesis”) [1] is reported as “failed to modulate eosinophil migration”, the “effect on eosinophil apoptosis / percentage of non-apoptotic eosinophils (result in words)” value [2] is reported as “increased the percentage of non-apoptotic eosinophils” and the “change in eosinophil morphology” value ([3]; μM doses, data not shown) is reported as “did not cause, even at μM doses, any alterations of eosinophil morphology”.

For `O=C(O)CCCCCCC1C(=O)NC(=O)N1CCC(O)C1CCCCC1` (stereo not drawn) [BW245C], the “stimulation of eosinophil chemokinesis” value [1] was “not BW245C was effective in stimulating eosinophil chemokinesis”, the “increase in the percentage of non-apoptotic eosinophil” value ([2]; BW245C 1 μM, 36 hours, over vehicle treated population, 9 donors) was 17% and the “change in eosinophil morphology” value ([3]; concentrations as high as 1 μM, panel 2c) was “did not affect eosinophil shape”. The “release of ECP from eosinophils (result in words)” value ([4]; 1 hour) was “not BW245C, significantly increased the release of ECP”.

`CC(C)OC(=O)CCC/C=C\C[C@@H]1[C@@H](CC[C@@H](O)CCc2ccccc2)[C@H](O)C[C@@H]1O` [latanoprost] was tested, and the “stimulation of eosinophil chemokinesis” value [1] was “failed to modulate eosinophil migration”, the “effect on eosinophil apoptosis / percentage of non-apoptotic eosinophils (result in words)” value [2] was “not significant” and the “change in eosinophil morphology” value ([3]; μM doses, data not shown) was “did not cause, even at μM doses, any alterations of eosinophil morphology”.

In the case of `CCCCC[C@H](O)/C=C/[C@H]1C(=O)C[C@H](O)[C@@H]1C/C=C\CCCC(=O)O` [PGD2, Prostanglandin D2], the “chemotactic (chemoattractant) effect on eosinophils” value (eosinophils; PGD2 added to the bottom chamber) is reported as “not observed to exert a chemotatic effect; also recorded: did not attract eosinophils to the lower chamber”, the “chemotactic response of pre-incubated eosinophils to PAF or eotaxin” value (eosinophils; pre-incubation up to 1 μM for 5 minutes to 18 hours) is reported as “did not have an altered chemotactic response” and the “increase in eosinophil chemokinesis” value ([1]; 10 nM) is reported as 5 fold. For the same compound, the “increase in eosinophil chemokinesis” value ([1]; 1 μM) was 9 fold, the “increase in eosinophil chemokinesis compared to cells treated with vehicle only” value ([1]; 100 mM (so in the source), 5 minutes pre-treatment, 2 hours migration, FIG. 3) was 6 fold and the “stimulation of eosinophil chemokinesis” value [1] was “increased cell motility in the absence of a chemical gradient”. For the same compound, the “effect on eosinophil apoptosis / percentage of non-apoptotic eosinophils (result in words)” value [2] was “weak inhibitor of apoptotic cell death”, the “morphology change after a second PGD2 challenge” value ([3]; PGD2-treated eosinophils, data not shown) was “resistant to morphology changes after a second PGD2 challenge” and the “change in eosinophil morphology” value ([3]; PGD2 <10 nM, within minutes, n=20 donors) was “induced dramatic changes in cell morphology”. The “reversion of treated eosinophils to spherical shape” value ([3]; after PGD2 treatment) was “reverted to a spherical shape within six hours”, the “release of ECP from eosinophils into the media” value ([4]; 10 to 100 nM, 1 hour, FIG. 4) was “significantly increased the release of ECP” and the “release of the granular protein EDN from eosinophils” value ([4]; after PGD2 challenge, data not shown) was “observed the release from eosinophils of another granular protein, EDN”. The “extent of ECP release relative to PAF” value ([4]; average over donors) was “about half that seen with PAF”.

For “Il-5: Recombinant human interleukin-5 produced using a baculovirus system and purified by FPLC”, the “stimulation of eosinophil chemokinesis” value [1] was “able to stimulate eosinophil chemokinesis”, the “effect on eosinophil apoptosis / percentage of non-apoptotic eosinophils (result in words)” value [2] was “increased the percentage of non-apoptotic eosinophils” and the “change in eosinophil morphology” value [3, 5] was “lead to a rapid change in eosinophil morphology”.

With `CCCCCC(=O)CCC1C(=O)CC(O)C1C/C=C\CCCC(=O)O` (stereo not drawn) [DK-PGD2, 13,14-dihydro-15-keto-PGD2] the “stimulation of eosinophil chemokinesis” value [1] was “effective in stimulating eosinophil chemokinesis”, the “effect on eosinophil apoptosis / percentage of non-apoptotic eosinophils (result in words)” value [2] was “no significant effect” and the “change in eosinophil morphology” value [3, 5] was “induced a morphological change identical to that observed with PGD2”. For the same compound, the “release of ECP from eosinophils (result in words)” value ([4]; 1 hour) was “significantly increased the release of ECP”.

For `O=C(O)CCC/C=C\C[C@@H]1[C@@H](/C=C/[C@@H](O)COc2cccc(C(F)(F)F)c2)[C@H](O)C[C@@H]1O` (racemic) [fluprostenol], the “stimulation of eosinophil chemokinesis” value [1] was “failed to modulate eosinophil migration”, the “effect on eosinophil apoptosis / percentage of non-apoptotic eosinophils (result in words)” value [2] was “not significant” and the “change in eosinophil morphology” value ([3]; μM doses, data not shown) was “did not cause, even at μM doses, any alterations of eosinophil morphology”.
